The values that follow come from PMC6254985 (Journal of Experimental Pharmacology, 2018).

For one data set, the target named is human D2S receptor (Homo sapiens, UniProt P14416). The data set is described as follows: [35S]GTPγS binding assay, antagonist activity, D2S. It counts as biochemical. On the technique in general: Binding of GTPγS marks nucleotide exchange on a G protein.
The target in another data set is human D2L receptor (Homo sapiens, UniProt P14416). Description: [35S]GTPγS binding assay, antagonist activity, D2L. The format is biochemical.
The conditions of data set [1]: cited from earlier work.
The test system of data set [2] is 5-HT2A, 5-HT2B, 5-HT2C, 5-HT6, 5-HT7, D1, D2S, D2L, D3, or D5. The data set is described as follows: Agonist effect in the presence of dopamine or norepinephrine. It counts as cell-based.
The subject of data set [3] is alpha-adrenergic receptors. Description: Inhibition of alpha-adrenergic receptors.

Broadly, the IC50 is the concentration that gives 50% inhibition.

Molecules are shown by their SMILES. Counter-ions that a name gives are not always drawn. Like-named read-outs stand apart in the source and are kept apart here.

Chain of human D2S receptor (P14416 1-414 isoform P14416-2): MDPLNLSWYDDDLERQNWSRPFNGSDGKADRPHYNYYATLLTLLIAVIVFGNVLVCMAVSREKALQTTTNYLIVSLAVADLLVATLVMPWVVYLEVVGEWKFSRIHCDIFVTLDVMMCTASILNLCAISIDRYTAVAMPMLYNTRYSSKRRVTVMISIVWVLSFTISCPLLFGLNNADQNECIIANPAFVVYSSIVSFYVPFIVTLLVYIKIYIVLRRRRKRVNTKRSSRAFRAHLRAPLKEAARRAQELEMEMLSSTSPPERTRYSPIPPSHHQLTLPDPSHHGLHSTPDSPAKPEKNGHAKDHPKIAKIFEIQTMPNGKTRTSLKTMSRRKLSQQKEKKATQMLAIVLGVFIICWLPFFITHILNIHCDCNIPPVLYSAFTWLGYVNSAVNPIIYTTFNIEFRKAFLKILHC
Chain of human D2L receptor (P14416 whole entry): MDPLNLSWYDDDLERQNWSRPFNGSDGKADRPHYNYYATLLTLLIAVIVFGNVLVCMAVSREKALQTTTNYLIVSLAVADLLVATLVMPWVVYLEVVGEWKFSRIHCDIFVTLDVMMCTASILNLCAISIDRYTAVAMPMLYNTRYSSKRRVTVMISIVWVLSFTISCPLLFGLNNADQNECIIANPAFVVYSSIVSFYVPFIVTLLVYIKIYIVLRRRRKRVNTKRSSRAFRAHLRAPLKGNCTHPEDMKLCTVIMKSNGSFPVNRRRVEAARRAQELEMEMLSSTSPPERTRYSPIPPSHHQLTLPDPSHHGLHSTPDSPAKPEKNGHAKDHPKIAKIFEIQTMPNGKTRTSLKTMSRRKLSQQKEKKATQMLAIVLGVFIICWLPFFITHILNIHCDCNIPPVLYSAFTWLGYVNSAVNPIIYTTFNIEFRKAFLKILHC

`CCc1c(C)[nH]c2c1C(=O)[C@@H](CN1CCOCC1)CC2` (single isomer, unassigned) [R(−) enantiomer]: the “Antagonist potency of R(−) relative to S(+) enantiomer, D2S” value on human D2S receptor (based on the IC50) is recorded as ~ 100 fold. Moreover, the IC50 at human D2S receptor (read-out: IC50 of enantiomers, D2S, [35S]GTPγS binding assay) stood at 48 nM; at human D2L receptor (read-out: IC50 of enantiomers, D2L, [35S]GTPγS binding assay), 21 nM. Also, the “Antagonist potency of R(−) relative to S(+) enantiomer, D2L” value at human D2L receptor (based on the IC50) is reported as around 300 fold.

Consider `CCc1c(C)[nH]c2c1C(=O)C(CN1CCOCC1)CC2` (stereo not drawn) [SPN-810M, Molindone Hydrochloride], for which, in data set [1], the “Parkinsonism or extrapyramidal symptoms” value was “little to no parkinsonism or extrapyramidal symptoms” and the “Propensity for weight gain” value was “low propensity for weight gain”. For the same compound, the IC50 on human D2S receptor is 84.4 nM. For the same compound, in data set [2], the “Agonist effect in the presence of dopamine or norepinephrine” value is reported as “No agonist effect”. Moreover, the “Inhibition of the alpha-adrenergic receptors” value in data set [3] is on record as “no significant inhibition”.
